Assay results from patent US20220323471A1 (priority 2019, published 2022).

What was measured:
EBV RVP = format: cell-based, Ebola virus
[1] = system: endosomes and lysosomes of HT1080 cells; assay: Acridine Orange fluorescence, endosomal/lysosomal acidification; format: cell-based, human; settings: 4 hours pre-incubation, DGP, diphyllin, 6DG 2, 1 or 0.1 μM, Bafilomycin 100 nM, NH4Cl 25 mM
Procedure: To determine whether DGP inhibited ZIKV infection by preventing the acidification of endosomes and lysosomes, Acridine Orange (AO) was used, a cell-permeable fluorescent dye marker that accumulates in low pH compartments such as endosomes and lysosomes.
HT1080 cells were pre-incubated for 4 hours with the Bafilomycin (FIG. 10A, 100 nM), NH4Cl (FIG. 10A, 25 mM), DGP (FIG. 10B: 2 μM, 1 μM, or 0.1 μM) diphyllin (FIG. 10C: 2 μM, 1 μM, or 0.1 μM), or 6DG (FIG. 10C: 2 μM, 1 μM, or 0.1 μM) to test whether DGP prevents endosomal/lysosomal acidification. After staining the cells with 1 μg/mL of AO, changes in fluorescence were measured using a Celesta flow cytometer on the PerCP-Cy5-5-A channel. A shift in the AO fluorescence is indicated with an arrow in FIGS. 10A-10D.
Acridine Orange (Invitrogen) staining was performed as described previously (Kanzawa, T. et al. 2004, “Role of autophagy in temozolomide-induced cytotoxicity for malignant glioma cells.” Cell Death Differ 11(4): 448-457). Cells were stained with 1 μg/mL AO in 10% FBS DMEM for 30 min at 37° C. and then collected by trypsinization. Changes in fluorescence were measured using a Celesta flow cytometer in the PerCP-Cy5-5-A channel.

ZIKV strain MR766 = assay: ZIKV-induced mortality in Ifnar1−/− mice; format: in vivo, mouse (C57BL/6 Ifnar1−/−)
WNV-RVP = format: cell-based, West Nile virus; settings: VERO cells; DGP 1 μM; NH4Cl 20 mM
TBEV-RVP = format: cell-based, tick-borne encephalitis virus
[2] = system: type I IFN response (IFN-β); assay: Type I IFN response (IFN-β induction, qRT-PCR) in ZIKV-challenged CHME3 cells; format: cell-based, human; settings: ZIKV MR766 MOI 1, 0.1 μM and 1 μM, 48 hours
Excerpt: ZIKV infection activates the type I IFN response via IFN-stimulated genes that are activated by the host after recognition of viral components. If ZIKV is inhibited at a pre-fusion step, viral nucleic acids and proteins will not be exposed to the host cytosol; thus the type I IFN response will not be activated. To test whether DGP treatment prevents activation of the type I IFN response, CHME3 cells we challenged using ZIKV MR766 at an MOI of 1 in the presence of different DGP concentrations. At 48 hours post-challenge, the type I IFN response was assessed using qRT-PCR to measure IFN-β induction (FIG. 5).
ZIKV RNA levels were measured using real-time PCR. HT1080 and VERO cells were challenged by ZIKV MR766 at an MOI of 1 in the presence of DGP. At 48 hours post-challenge, cells were lysed and total RNA was extracted using trizol. Total RNA was used to determine the levels of ZIKV RNA by real-time PCR using specific primers against ZIKA. qRT-PCR was carried out using SYBR green in a 20-μl final volume using a MASTERCYCLER proS machine. The primers used to detect ZIKV were: SEQ ID NO. 1: 5′-TT […]-3′-Forward (Genome Position 941-964) and SEQ ID NO. 2: 5′-[…]-3′-Reverse (Genome position 1123-1103) (AY632535.2). For the detection of SeV, the following primers were used: SEQ ID NO. 3: 5′-[…]-3′-Forward (Genome position 210-233) and SEQ ID NO. […]

SMILES: COc1cc2c(OC3OC(C)C(O)C(O)C3O)c3c(c(-c4ccc5c(c4)OCO5)c2cc1OC)C(=O)OC3 (centres unmarked) [DGP, 6-deoxyglucose-diphyllin]
- EBV RVP infection (EBV RVP): almost undetectable
- acidification of endosomes and lysosomes (AO fluorescence) [1]: decreased AO fluorescence
- percent survival (ZIKV strain MR766; 0.1 mg/kg and 0.2 mg/kg dose (FIG. 8A)): improved
- body weight of surviving mice (ZIKV strain MR766; 0.2 mg/kg and 1 mg/kg (FIGS. 8B and 8D)): able to regain lost body weight
- survival (ZIKV strain MR766; 1 mg/kg (FIG. 8C)): 100%
- time at which group succumbed to viral infection (ZIKV strain MR766; ZIKV + 0.1 mg/kg, footpad co-injection): 10 days post-challenge
- appearance of symptoms (ZIKV strain MR766; ZIKV + 0.2 mg/kg, compared with ZIKV group): delay in the appearance of symptoms
- survival (ZIKV strain MR766; ZIKV + 0.2 mg/kg, footpad co-injection): some mice survived until day 14
- disease symptoms (ZIKV strain MR766; ZIKV + 1 mg/kg): did not show any obvious disease symptoms
- body weight (ZIKV strain MR766; ZIKV + 1 mg/kg compared to PBS + 1 mg/kg of DGP): lower body weights
- mice surviving for the length of the experiment (ZIKV strain MR766; ZIKV + 1 mg/kg, 15 post-challenge days, 6 mice/group): all six mice
- WNV RVP infection (WNV-RVP): almost undetectable
- TBEV RVP infection (TBEV-RVP): almost undetectable
- activation of the type I IFN response (IFN-β induction) [2]: substantially decreased and/or prevented
